According to patent publication US20260250318A1, “COMPOSITIONS AND METHODS FOR CROSSING THE BLOOD BRAIN BARRIER” (VOYAGER THERAPEUTICS, INC., priority 2022, published 2026):

System: brains, heart, liver, muscle, and DRG of the NHPs
Assay: Maturation of TTM-001 and TTM-002 capsids, NGS enrichment in NHP tissues
Format: in vivo
Settings: NGS, relative to AAV9 control; for Fold Enrichment relative to AAV9, Liver RNA (NHP): TTM-001 and TTM-002 matured AAV capsid variants
Excerpt: This Example describes maturation of the AAV9 capsid variants, TTM-001 (SEQ ID NO: 981 (amino acid) and 983 (DNA), comprising SEQ ID NO: 941 (encoded by SEQ ID NO: 942)) and TTM-002 (SEQ ID NO: 982 (amino acid) and 984 (DNA), comprising SEQ ID NO: […] (encoded by SEQ ID NO: 944)) in NHPs to further enhance their transduction and biodistribution in the central nervous system as well as other tissues, and evolve the AAV capsid variants to provide further cross-species compatibility. Two approaches were used to mature the TTM-001 and TTM-002 capsid sequences in order to randomize and mutate within and around the peptide insert comprised within loop IV of the capsid variant. […] In the first maturation approach, sets of three contiguous amino acids were randomized across the mutagenesis region in the TTM-001 and TTM-002 sequences, which spanned from position 450 to position 466, numbered according to SEQ ID NO: 981 and 982. In the second maturation approach, mutagenic primers were used to introduce point mutations at a low frequency, scattered across the mutagenesis region in the TTM-001 and TTM-002 sequences ranging from position 449 to position 466, numbered according to SEQ ID NO: 981 and 982. AAV capsid variants arising from each maturation approach for TTM-001 and TTM-002 were pooled together, for subsequent testing and characterization in NHPs.
The library of pooled matured AAV capsid variants generated using the first maturation approach and the second maturation approach for the TTM-001 and TTM-002 AAV capsid variants were injected into two NHPs. […] Following RNA recovery and RT-PCR amplification, a systematic NGS enrichment analysis was performed to calculate the fold enrichment ratio relative to an AAV9 control, and the peptides comprised within the variants were identified.
Following the RNA recovery and NGS analysis from the second maturation approach, approximately 680,000 capsid variants were identified. The 680,000 matured capsid variants were then filtered based on samples with a raw virus count greater than 10 and a coefficient of variance (CV) of less than 1, which was calculated for each peptide across the brain samples taken from the two NHPs. […] Using this filtering criteria, this led to approximately 64,000 matured capsid variants.

KTINGSGSPHSKRSYQQT
Fold Enrichment relative to AAV9, DRG (NHP): 0.000 fold | Fold Enrichment relative to AAV9, Brain (NHP): 0.000 fold | Fold Enrichment relative to AAV9, Heart (NHP): 0.000 fold | Fold Enrichment relative to AAV9, Liver DNA (NHP): 2.116 fold | Fold Enrichment relative to AAV9, Liver RNA (NHP): 28.973 fold | Fold Enrichment relative to AAV9, Muscle (NHP): 0.000 fold

KTINGSGSPHSKRVVQQT
Fold Enrichment relative to AAV9, DRG (NHP): 0.000 fold | Fold Enrichment relative to AAV9, Brain (NHP): 0.000 fold | Fold Enrichment relative to AAV9, Heart (NHP): 0.000 fold | Fold Enrichment relative to AAV9, Liver DNA (NHP): 1.639 fold | Fold Enrichment relative to AAV9, Liver RNA (NHP): 11.094 fold | Fold Enrichment relative to AAV9, Muscle (NHP): 0.000 fold

KTINGSGSPHSKRYTQQT
Fold Enrichment relative to AAV9, DRG (NHP): 0.000 fold | Fold Enrichment relative to AAV9, Brain (NHP): 0.000 fold | Fold Enrichment relative to AAV9, Heart (NHP): 0.000 fold | Fold Enrichment relative to AAV9, Liver DNA (NHP): 9.412 fold | Fold Enrichment relative to AAV9, Liver RNA (NHP): 25.267 fold | Fold Enrichment relative to AAV9, Muscle (NHP): 0.000 fold

KTINGSGSPHSKSEQQQT
Fold Enrichment relative to AAV9, DRG (NHP): 0.000 fold | Fold Enrichment relative to AAV9, Brain (NHP): 0.000 fold | Fold Enrichment relative to AAV9, Heart (NHP): 0.000 fold | Fold Enrichment relative to AAV9, Liver DNA (NHP): 1.769 fold | Fold Enrichment relative to AAV9, Liver RNA (NHP): 11.785 fold | Fold Enrichment relative to AAV9, Muscle (NHP): 0.000 fold

KTINGSGSPHSKTRKQQT
Fold Enrichment relative to AAV9, DRG (NHP): 0.000 fold | Fold Enrichment relative to AAV9, Brain (NHP): 0.000 fold | Fold Enrichment relative to AAV9, Heart (NHP): 0.000 fold | Fold Enrichment relative to AAV9, Liver DNA (NHP): 2.858 fold | Fold Enrichment relative to AAV9, Liver RNA (NHP): 36.010 fold | Fold Enrichment relative to AAV9, Muscle (NHP): 0.000 fold

KTINGSGSPHSKVRMQQT
Fold Enrichment relative to AAV9, DRG (NHP): 0.000 fold | Fold Enrichment relative to AAV9, Brain (NHP): 0.000 fold | Fold Enrichment relative to AAV9, Heart (NHP): 0.000 fold | Fold Enrichment relative to AAV9, Liver DNA (NHP): 1.835 fold | Fold Enrichment relative to AAV9, Liver RNA (NHP): 11.572 fold | Fold Enrichment relative to AAV9, Muscle (NHP): 0.000 fold

KTINGSGSPHSKWGLQQT
Fold Enrichment relative to AAV9, DRG (NHP): 0.000 fold | Fold Enrichment relative to AAV9, Brain (NHP): 0.000 fold | Fold Enrichment relative to AAV9, Heart (NHP): 0.000 fold | Fold Enrichment relative to AAV9, Liver DNA (NHP): 2.639 fold | Fold Enrichment relative to AAV9, Liver RNA (NHP): 17.543 fold | Fold Enrichment relative to AAV9, Muscle (NHP): 0.000 fold

KTINGSGSPHSKWKSQQT
Fold Enrichment relative to AAV9, DRG (NHP): 0.000 fold | Fold Enrichment relative to AAV9, Brain (NHP): 0.000 fold | Fold Enrichment relative to AAV9, Heart (NHP): 4.904 fold | Fold Enrichment relative to AAV9, Liver DNA (NHP): 1.239 fold | Fold Enrichment relative to AAV9, Liver RNA (NHP): 20.390 fold | Fold Enrichment relative to AAV9, Muscle (NHP): 0.163 fold

KTINGSGSPHSKWRLQQT
Fold Enrichment relative to AAV9, DRG (NHP): 0.000 fold | Fold Enrichment relative to AAV9, Brain (NHP): 0.000 fold | Fold Enrichment relative to AAV9, Heart (NHP): 0.000 fold | Fold Enrichment relative to AAV9, Liver DNA (NHP): 2.037 fold | Fold Enrichment relative to AAV9, Liver RNA (NHP): 68.083 fold | Fold Enrichment relative to AAV9, Muscle (NHP): 0.000 fold

KTINGSGSPHSKYFMQQT
Fold Enrichment relative to AAV9, DRG (NHP): 0.000 fold | Fold Enrichment relative to AAV9, Brain (NHP): 0.000 fold | Fold Enrichment relative to AAV9, Heart (NHP): 0.000 fold | Fold Enrichment relative to AAV9, Liver DNA (NHP): 2.993 fold | Fold Enrichment relative to AAV9, Liver RNA (NHP): 57.350 fold | Fold Enrichment relative to AAV9, Muscle (NHP): 0.000 fold

KTINGSGSPHSLAWNQQT
Fold Enrichment relative to AAV9, DRG (NHP): 0.000 fold | Fold Enrichment relative to AAV9, Brain (NHP): 0.000 fold | Fold Enrichment relative to AAV9, Heart (NHP): 0.000 fold | Fold Enrichment relative to AAV9, Liver DNA (NHP): 4.746 fold | Fold Enrichment relative to AAV9, Liver RNA (NHP): 29.015 fold | Fold Enrichment relative to AAV9, Muscle (NHP): 0.000 fold

KTINGSGSPHSLCLNQQT
Fold Enrichment relative to AAV9, DRG (NHP): 0.000 fold | Fold Enrichment relative to AAV9, Brain (NHP): 0.000 fold | Fold Enrichment relative to AAV9, Heart (NHP): 0.000 fold | Fold Enrichment relative to AAV9, Liver DNA (NHP): 1.790 fold | Fold Enrichment relative to AAV9, Liver RNA (NHP): 17.028 fold | Fold Enrichment relative to AAV9, Muscle (NHP): 0.000 fold
